Measured values reported in PubChem BioAssay (NCI).
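96-well plates; 48 h exposure; 5 concentrations. Endpoints by linear interpolation between flanking doses. Not reached: highest tested concentration assigned. TGI is the concentration that stops growth completely.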

Key:
Test in all cases: NCI tumour cell line growth inhibition, 48 h
[1] = tested on: SK-MEL-5 melanoma
[2] = tested on: T-47D breast
[3] = tested on: A549 NSCLC
[4] = tested on: RXF 393 renal
[5] = tested on: A498 renal
[6] = tested on: DU-145 prostate
[7] = tested on: BT-549 breast
[8] = tested on: SK-MEL-2 melanoma
[9] = tested on: NCI-H522 lung
[10] = tested on: SW-620 colon
[11] = tested on: NCI-H460 lung
[12] = tested on: ACHN renal
[13] = tested on: UO-31 renal
[14] = tested on: SK-OV-3 ovarian
[15] = tested on: LOX IMVI melanoma
[16] = tested on: NCI-H23 lung
[17] = tested on: SF-539 CNS
[18] = tested on: SF-295 CNS
[19] = tested on: HCT-116 colon
[20] = tested on: M19-MEL melanoma
[21] = tested on: 786-0 renal
[22] = tested on: KM20L2 colon
[23] = tested on: HOP-62 NSCLC
[24] = tested on: OVCAR-4 ovarian
[25] = tested on: SK-MEL-28 melanoma
[26] = tested on: HT29 colon
[27] = tested on: NCI-H226 lung
[28] = tested on: SF-268 CNS
[29] = tested on: TK-10 renal
[30] = tested on: MDA-N
[31] = tested on: CAKI-1 renal
[32] = tested on: U251 CNS
[33] = tested on: RXF-631 renal
[34] = tested on: OVCAR-8 ovarian
[35] = tested on: NCI/ADR-RES ovarian
[36] = tested on: UACC-257 melanoma
[37] = tested on: LXFL 529 NSCLC
[38] = tested on: OVCAR-5 ovarian
[39] = tested on: SNB-78 CNS
[40] = tested on: SN12C renal
[41] = tested on: MALME-3M melanoma
[42] = tested on: SR leukemia
[43] = tested on: DMS 273 small cell lung
[44] = tested on: MOLT-4 leukemia
[45] = tested on: MDA-MB-231 breast
[46] = tested on: RPMI-8226 leukemia
[47] = tested on: XF 498 CNS
[48] = tested on: HCT-15 colon
[49] = tested on: OVCAR-3 ovarian
[50] = tested on: K-562 leukemia
[51] = tested on: IGROV1 ovarian
[52] = tested on: SNB-75 CNS
[53] = tested on: HOP-92 NSCLC
[54] = tested on: COLO 205 colon
[55] = tested on: KM12 colon
[56] = tested on: PC-3 prostate
[57] = tested on: MDA-MB-435
[58] = tested on: HS 578T breast
[59] = tested on: CCRF-CEM leukemia
[60] = tested on: MCF7 breast
[61] = tested on: SNB-19 CNS
[62] = tested on: M14 melanoma
[63] = tested on: UACC-62 melanoma
[64] = tested on: DMS 114 small cell lung
[65] = tested on: EKVX NSCLC
[66] = tested on: HCC-2998 colon
[67] = tested on: HOP-18 NSCLC
[68] = tested on: HL-60(TB) leukemia
[69] = tested on: DLD-1 colon

Cc1c(Cl)ccc2c1NC(=O)C2(O)CC(=O)c1ccc(Cl)cc1Cl (stereo unspecified)
TGI [1]: > 50 µM | TGI [2]: > 50 µM | TGI [3]: > 50 µM | TGI [4]: 48.9 µM | TGI [5]: > 50 µM | TGI [6]: > 50 µM | TGI [7]: > 50 µM | TGI [8]: > 50 µM | TGI [9]: > 50 µM | TGI [10]: > 50 µM | TGI [11]: > 50 µM | TGI [12]: > 50 µM | TGI [13]: > 50 µM | TGI [14]: > 50 µM | TGI [15]: > 50 µM | TGI [16]: > 50 µM | TGI [17]: > 50 µM | TGI [18]: > 50 µM | TGI [19]: > 50 µM | TGI [20]: > 50 µM | TGI [21]: > 50 µM | TGI [22]: > 50 µM | TGI [23]: > 50 µM | TGI [24]: > 50 µM | TGI [25]: > 50 µM | TGI [26]: > 50 µM | TGI [27]: > 50 µM | TGI [28]: > 50 µM | TGI [29]: > 50 µM | TGI [30]: > 50 µM | TGI [31]: > 50 µM | TGI [32]: > 50 µM | TGI [33]: > 50 µM | TGI [34]: > 50 µM | TGI [35]: > 50 µM | TGI [36]: > 50 µM | TGI [37]: > 50 µM | TGI [38]: > 50 µM | TGI [39]: > 50 µM | TGI [40]: > 50 µM | TGI [41]: > 50 µM | TGI [42]: 0.826 µM | TGI [43]: > 50 µM | TGI [44]: > 50 µM | TGI [45]: > 50 µM | TGI [46]: > 50 µM | TGI [47]: > 50 µM | TGI [48]: > 50 µM | TGI [49]: > 50 µM | TGI [50]: > 50 µM | TGI [51]: > 50 µM | TGI [52]: > 41.3 µM | TGI [53]: > 50 µM | TGI [54]: > 50 µM | TGI [55]: > 50 µM | TGI [56]: > 50 µM | TGI [57]: > 50 µM | TGI [58]: 48.9 µM | TGI [59]: 22.4 µM | TGI [60]: > 50 µM | TGI [61]: > 50 µM | TGI [62]: > 50 µM | TGI [63]: > 50 µM | TGI [64]: > 50 µM | TGI [65]: > 50 µM | TGI [66]: > 50 µM

COc1cc2c(cc1OC)C1c3ccccc3C(C#N)(C2)N(C(=O)c2ccccc2)C1O (stereo unspecified)
TGI [1]: 90 µM | TGI [4]: > 100 µM | TGI [8]: > 100 µM | TGI [9]: 56.4 µM | TGI [10]: > 100 µM | TGI [11]: > 100 µM | TGI [12]: > 100 µM | TGI [13]: > 100 µM | TGI [14]: > 100 µM | TGI [15]: > 100 µM | TGI [16]: > 100 µM | TGI [67]: > 100 µM | TGI [17]: > 100 µM | TGI [18]: > 100 µM | TGI [19]: > 100 µM | TGI [20]: > 100 µM | TGI [21]: > 100 µM | TGI [22]: > 100 µM | TGI [23]: > 100 µM | TGI [25]: > 100 µM | TGI [26]: > 100 µM | TGI [27]: > 100 µM | TGI [28]: > 100 µM | TGI [29]: > 100 µM | TGI [32]: > 100 µM | TGI [33]: > 100 µM | TGI [34]: > 100 µM | TGI [68]: > 100 µM | TGI [36]: > 100 µM | TGI [37]: > 100 µM | TGI [38]: > 100 µM | TGI [39]: > 100 µM | TGI [40]: > 100 µM | TGI [41]: > 100 µM | TGI [42]: > 100 µM | TGI [43]: > 100 µM | TGI [44]: > 100 µM | TGI [46]: > 100 µM | TGI [47]: 95.9 µM | TGI [48]: > 100 µM | TGI [49]: > 100 µM | TGI [50]: > 100 µM | TGI [51]: > 100 µM | TGI [52]: > 100 µM | TGI [53]: > 100 µM | TGI [54]: 53.1 µM | TGI [55]: > 100 µM | TGI [59]: > 100 µM | TGI [61]: > 100 µM | TGI [69]: > 100 µM | TGI [62]: > 100 µM | TGI [63]: > 100 µM | TGI [64]: > 100 µM | TGI [65]: > 100 µM | TGI [66]: > 100 µM
